Results reported in patent US20250101028A1, “HETEROCYCLIC COMPOUNDS, COMPOSITIONS THEREOF, AND METHODS OF TREATMENT THEREWITH” (BeiGene, Ltd., priority 2022, published 2025).

Biological target: T1, GST-tagged GDP-loaded KRAS G12V (amino acids 1-169) (Homo sapiens, UniProt P01116, G12V)
T1 construct: GST-tagged GDP-loaded KRAS G12V (amino acids 1-169); made in house; host or cells: E. coli
Assay: KRAS G12V probe displacement assay (TR-FRET)
Format: binding
Conditions: displacement of biotinylated probe 2 from GDP-loaded KRAS G12V
Procedure: KRAS WT and KRAS G12V Probe Displacement Assay
This assay was used to identify compounds which bind to GDP-loaded KRAS protein and are able to displace a biotinylated probe occupying the KRAS binding site. GST-tagged GDP-loaded WT KRAS (amino acids 1-169) and GST-tagged GDP-loaded KRAS G12V (amino acids 1-169) were expressed in E. coli and purified in house. All protein and reaction solutions were prepared in assay buffer containing 50 mM HEPES pH7.5, 50 mM NaCl, 1 mM MgCl2, 1 mM TCEP, 0.01% BSA, and 0.008% Brij-35. Purified WT KRAS (3 nM final concentration) or KRAS G12V protein (2 nM final concentration) was incubated with a 3-fold serially diluted compound in the assay plate (384 well microplate, black, Corning). Plates are incubated at 24° C. for 1 hr. Following the incubation, biotinylated probe 1 (60 nM final assay concentration) for WT KRAS and biotinylated probe 2 (2.5 nM final assay concentration) for KRAS G12V was added to the assay plate, respectively. After 1 hr incubation at 24° C., Mab Anti-GST-Tb cryptate (Cisbio) and Streptavidin-XL665 (Cisbio) were added and further incubated at 24° C. for another 1 hr. The TR-FRET signals (ex337 nm, em665 nm/620 nm) were read on BMG PHERAstar FSX instrument. The inhibition percentage of KRAS protein binding with biotinylated probe in presence of increasing concentrations of compounds was calculated based on the ratio of fluorescence at 665 nm to that at 620 nm. The IC50 value of each compound was calculated from fitting the data to the four-parameter logistic model by Dotmatics.

T1 sequence (P01116 1-169 isoform P01116-2 G12V): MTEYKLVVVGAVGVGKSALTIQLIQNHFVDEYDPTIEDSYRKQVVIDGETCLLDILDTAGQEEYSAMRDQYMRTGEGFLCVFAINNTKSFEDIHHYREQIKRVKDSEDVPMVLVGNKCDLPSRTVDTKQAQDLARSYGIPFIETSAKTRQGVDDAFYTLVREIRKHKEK

Point of comparison: `Nc1nc2c(-c3c(C(F)(F)F)cc4c(N[C@H]5C[C@H]5F)nc(OC[C@@]56CCCN5C[C@H](F)C6)nc4c3F)ccc(F)c2s1` [Example 2, 7-fluoro-4-(8-fluoro-4-(((1S,2R)-2-fluorocyclopropyl)amino)-2-(((2R,7aS)-2-fluorotetrahydro-1H-pyrrolizin-7a(5H)-yl)methoxy)-6-(trifluoromethyl)quinazolin-7-yl)benzo[d]thiazol-2-amine], IC50 16 nM. Against it:
- N#C[C@@H]1CCN(c2nc(OC[C@@]34CCCN3C[C@H](F)C4)nc3c(F)c(-c4ccc(F)c5sc(N)nc45)c(C(F)(F)F)cc23)C[C@H]1O (mixture of isomers) [Example 75, 1-(7-(2-amino-7-fluorobenzo[d]thiazol-4-yl)-8-fluoro-2-(((2R,7aS)-2-fluorotetrahydro-1H-pyrrolizin-7a(5H)-yl)methoxy)-6-(trifluoromethyl)quinazolin-4-yl)-trans-3-hydroxypiperidine-4-carbonitrile] — 4.2-fold lower, 3.8 nM
- Cc1cc(N)nc(-c2c(Cl)cc3c(N4CC[C@@H](C#N)C[C@@H]4C)nc(OC[C@@]45CCCN4C[C@H](F)C5)nc3c2F)c1C(F)(F)F (mixture of isomers) [Example 104, 1-(7-(6-amino-4-methyl-3-(trifluoromethyl)pyridin-2-yl)-6-chloro-8-fluoro-2-(((2R,7aS)-2-fluorotetrahydro-1H-pyrrolizin-7a(5H)-yl)methoxy)quinazolin-4-yl)-trans-2-methylpiperidine-4-carbonitrile] — 2.3-fold lower, 7 nM
- Nc1nc2c(-c3c(C(F)(F)F)cc4c(NC5CC5c5ccccc5)nc(OC[C@@]56CCCN5C[C@H](F)C6)nc4c3F)ccc(F)c2s1 (relative stereo) [Example 5, 7-fluoro-4-(8-fluoro-2-(((2R,7aS)-2-fluorotetrahydro-1H-pyrrolizin-7a(5H)-yl)methoxy)-4-(((trans)-2-phenylcyclopropyl)amino)-6-(trifluoromethyl)quinazolin-7-yl)benzo[d]thiazol-2-amine] — 2.8-fold higher, 45 nM
- CC1CC(C#N)CCN1c1nc(OC[C@@]23CCCN2C[C@H](F)C3)nc2c(F)c(-c3ccc(F)c4sc(N)nc34)c(C(F)(F)F)cc12 (relative stereo) [Example 74, 1-(7-(2-amino-7-fluorobenzo[d]thiazol-4-yl)-8-fluoro-2-(((2R,7aS)-2-fluorotetrahydro-1H-pyrrolizin-7a(5H)-yl)methoxy)-6-(trifluoromethyl)quinazolin-4-yl)-trans-2-methylpiperidine-4-carbonitrile] — 8.4-fold lower, 1.9 nM
- Nc1nc2c(-c3c(C(F)(F)F)cc4c(NC5CCC(F)C5)nc(OC[C@@]56CCCN5C[C@H](F)C6)nc4c3F)ccc(F)c2s1 (stereo in doubt) [Example 25, 7-fluoro-4-(8-fluoro-4-(((1S,3R)-3-fluorocyclopentyl)amino)-2-(((2R,7aS)-2-fluorotetrahydro-1H-pyrrolizin-7a(5H)-yl)methoxy)-6-(trifluoromethyl)quinazolin-7-yl) benzo[d]thiazol-2-amine] — 2.4-fold higher, 38 nM
- CC1CC1Nc1nc(OC[C@@]23CCCN2C[C@H](F)C3)nc2c(F)c(-c3ccc(F)c4sc(N)nc34)c(C(F)(F)F)cc12 (stereo partly drawn) [Example 3, 7-fluoro-4-(8-fluoro-2-(((2R,7aS)-2-fluorotetrahydro-1H-pyrrolizin-7a(5H)-yl)methoxy)-4-((2-methylcyclopropyl)amino)-6-(trifluoromethyl)quinazolin-7-yl)benzo[d]thiazol-2-amine] — 2.6-fold lower, 6.2 nM
- CCC1CC1Nc1nc(OC[C@@]23CCCN2C[C@H](F)C3)nc2c(F)c(-c3ccc(F)c4sc(N)nc34)c(C(F)(F)F)cc12 (stereo partly shown) [Example 4] — 1.8-fold higher, 29 nM
- COC1CC1Nc1nc(OC[C@@]23CCCN2C[C@H](F)C3)nc2c(F)c(-c3ccc(F)c4sc(N)nc34)c(C(F)(F)F)cc12 (stereo partly drawn) [Example 6, 7-fluoro-4-(8-fluoro-2-(((2R,7aS)-2-fluorotetrahydro-1H-pyrrolizin-7a(5H)-yl)methoxy)-4-((2-methoxycyclopropyl)amino)-6-(trifluoromethyl)quinazolin-7-yl)benzo[d]thiazol-2-amine] — 3.4-fold higher, 54 nM
- Nc1nc2c(-c3c(C(F)(F)F)cc4c(NC5C6CCCC65)nc(OC[C@@]56CCCN5C[C@H](F)C6)nc4c3F)ccc(F)c2s1 (stereo partly drawn) [Example 8, 4-(4-(bicyclo[3.1.0]hexan-6-ylamino)-8-fluoro-2-(((2R,7aS)-2-fluorotetrahydro-1H-pyrrolizin-7a(5H)-yl)methoxy)-6-(trifluoromethyl)quinazolin-7-yl)-7-fluorobenzo[d]thiazol-2-amine] — 2.7-fold higher, 43 nM
- CC(=O)N1C[C@@H]2[C@H](C1)[C@H]2Nc1nc(OC[C@@]23CCCN2C[C@H](F)C3)nc2c(F)c(-c3ccc(F)c4sc(N)nc34)c(C(F)(F)F)cc12 [Example 9, 1-((1R,5S,6s)-6-((7-(2-amino-7-fluorobenzo[d]thiazol-4-yl)-8-fluoro-2-(((2R,7aS)-2-fluorotetrahydro-1H-pyrrolizin-7a(5H)-yl)methoxy)-6-(trifluoromethyl)quinazolin-4-yl)amino)-3-azabicyclo[3.1.0]hexan-3-yl)ethan-1-one] — 6.4-fold lower, 2.5 nM
- Nc1nc2c(-c3c(C(F)(F)F)cc4c(NC5CCC5)nc(OC[C@@]56CCCN5C[C@H](F)C6)nc4c3F)ccc(F)c2s1 [Example 10, 4-(4-(cyclobutylamino)-8-fluoro-2-(((2R,7aS)-2-fluorotetrahydro-1H-pyrrolizin-7a(5H)-yl)methoxy)-6-(trifluoromethyl)quinazolin-7-yl)-7-fluorobenzo[d]thiazol-2-amine] — within 1.5-fold, 19 nM
- Nc1nc2c(-c3c(C(F)(F)F)cc4c(N[C@H]5C[C@@H](O)C5)nc(OC[C@@]56CCCN5C[C@H](F)C6)nc4c3F)ccc(F)c2s1 [Example 11, cis-3-((7-(2-amino-7-fluorobenzo[d]thiazol-4-yl)-8-fluoro-2-(((2R,7aS)-2-fluorotetrahydro-1H-pyrrolizin-7a(5H)-yl)methoxy)-6-(trifluoromethyl)quinazolin-4-yl)amino)cyclobutan-1-ol] — 3.6-fold lower, 4.4 nM
- Nc1nc2c(-c3c(C(F)(F)F)cc4c(N[C@H]5C[C@H](O)C5)nc(OC[C@@]56CCCN5C[C@H](F)C6)nc4c3F)ccc(F)c2s1 [Example 12, (trans)-3-((7-(2-amino-7-fluorobenzo[d]thiazol-4-yl)-8-fluoro-2(((2R,7aS)-2-fluorotetrahydro-1H-pyrrolizin-7a(5H)-yl)methoxy)-6-(trifluoromethyl)quinazolin-4-yl)amino)cyclobutan-1-ol] — 4.3-fold lower, 3.7 nM
- CO[C@H]1C[C@@H](Nc2nc(OC[C@@]34CCCN3C[C@H](F)C4)nc3c(F)c(-c4ccc(F)c5sc(N)nc45)c(C(F)(F)F)cc23)C1 [Example 13, 7-fluoro-4-(8-fluoro-2-(((2R,7aS)-2-fluorotetrahydro-1H-pyrrolizin-7a(5H)-yl)methoxy)-4-(((cis)-3-methoxycyclobutyl)amino)-6-(trifluoromethyl)quinazolin-7-yl)benzo[d]thiazol-2-amine] — within 1.5-fold, 20 nM
- CO[C@H]1C[C@H](Nc2nc(OC[C@@]34CCCN3C[C@H](F)C4)nc3c(F)c(-c4ccc(F)c5sc(N)nc45)c(C(F)(F)F)cc23)C1 [Example 14, 7-fluoro-4-(8-fluoro-2-(((2R,7aS)-2-fluorotetrahydro-1H-pyrrolizin-7a(5H)-yl)methoxy)-4-(((trans)-3-methoxycyclobutyl)amino)-6-(trifluoromethyl)quinazolin-7-yl)benzo[d]thiazol-2-amine] — within 1.5-fold, 13 nM
